Consider one molecule from patent US10793543B2, “Selective C-KIT kinase inhibitor” (PRECEDO PHARMACEUTICALS CO., LTD, priority 2016, dated 2020).

Data set [1] deals with Tel-cKit/L576P-BaF3 cells (KIT L576P). The data set can be described thus: Cell proliferation, CCK-8, Tel-cKit/L576P-BaF3. The class given is cell-based. Conditions: Mus musculus, 72 hours. The source says: (§1) In addition, in the present example, further uses: mouse P210/BaF3 (stably expressing P210 Bcr-Abl mutant gene), mouse Tel-ABL-BaF3 (stably expressing wild-type ABL kinase), mouse Tel-cKit-BaF3 (stably expressing C-KITwild-type kinase), mouse Tel-cKit/V559D-BaF3 (stably expressing C-KIT V559D mutant kinase), mouse Tel-cKit/V559D/V654A-BaF3 (stably expressing C-KIT V559D/V654A mutant kinase), mouse Tel-cKit/N822K-BaF3 (stably expressing C-KIT N822K mutant kinase), mouse Tel-cKit/V654A-BaF3 (stably expressing C-KIT V654A mutant kinase), mouse Tel-cKit/L567P-BaF3 (stably expressing C-KIT L567P mutant kinase), mouse Tel-cKit/T670I-BaF3 (stably expressing C-KIT T670I mutant kinase), mouse Tel-PDGFRα-BaF3 (stably expressing PDGFRα kinase), mouse Tel-PDGFRβ-BaF3 (stably expressing PDGFRβ kinase), mouse Tel-VEGFR2-BaF3 (stably expressing VEGFR2 kinase), mouse Tel-RET-BaF3 (stably expressing RET kinase). The above cell lines were all constructed by our laboratory according to the following method: the kinase region sequences of human P210 Bcr-Abl, ABL, C-KIT, C-KIT V559D, C-KIT V559D/V654A, C-KIT N822K, C-KIT V654A, C-KIT L567P, C-KIT T670I, PDGFRα, PDGFRβ, VEGFR2, RET were amplified respectively by PCR, inserted respectively into MSCV-Puro vectors harboring N-terminal TEL fragment and/or NPM fragment and/or TPR fragment (Clontech), then the vectors were stably transfected into mouse BaF3 cells by retrovirus methods and growth factor IL-3 was removed, eventually obtaining cell lines that are transferred protein (P210 Bcr-Abl, ABL, C-KIT, C-KIT V559D, C-KIT V559D/V654A, C-KIT N822K, C-KIT V654A, C-KIT L567P, C-KIT T670I, PDGFRα, PDGFRβ, VEGFR2, RET)-dependent.
(§2) The cells were incubated for 72 hours, and then the number of viable cells was quantified with a microplate reader by using CCK-8 Cell Viability Assay Kit (purchased from Bestbio Company, Shanghai, China) (CCK-8 can be reduced by dehydrogenase in living cells to a highly water-soluble yellow formazan product, and the amount of formazan produced is proportional to the number of living cells).

For data set [2], the system named is cells expressing wild-type ABL and mutant Bcr-Abl kinase. The data set can be described thus: Cell proliferation, text summary for ABL/Bcr-Abl cells. The class given is cell-based. Conditions: summary of Table 2.
Description: In the present example, the following cells were used: chronic myelogenous leukemia cells K562 (expressing P210 Bcr-Abl mutant gene), human megakaryocytic leukemia cells MEG-01 (expressing P210 Bcr-Abl mutant gene), human peripheral blood basophilic leukemia cells Ku812 (expressing Bcr-Abl mutant gene) (all above cells purchased from ATCC, USA), human gastrointestinal stromal tumor cell lines GIST-T1 cells (expressing wild-type C-KIT gene) (purchased from Cosmo Bio Co., Ltd., Japan), human gastrointestinal stromal tumor cell lines GIST-882 cells (expressing wild-type C-KIT gene) (presented by the Professor Gray Lab, Dana-Farber Cancer Institute, Harvard University, USA), mouse pro-B cells BaF3 (purchased from ATCC, USA). […]
as §2

Data set [3] has as its target T1, protein kinase C-KIT (Homo sapiens, UniProt P10721).
T1 construct: The kinase domain of protein kinase C-KIT was cloned into the insect expression vector pFASTHTA; His tag; made in house; host or cells: SF9 insect cells (Bac-to-Bac baculovirus system)
Kind of data set: In vitro enzyme activity assay (ADP-Glo). It counts as biochemical. As to conditions: purified C-KIT kinase domain, ATP 10 μM. As for the experimental part:
The IC50 value of Compound 4 against protein kinase C-KIT was determined in an in vitro enzyme activity assay. The kinase domain of protein kinase C-KIT was cloned into the insect expression vector pFASTHTA (purchased from Invitrogen life technologies), and the protein with His tag was expressed using the insect expression system Bac-to-Bac Baculovirus Expression System (purchased from Invitrogen life technologies). The constructed vector was transfected into SF9 packaging virus (purchased from Invitrogen life technologies), and the virus was used to infect SF9 to express the protein. Purification was performed using affinity chromatography.
9 μL (6 ng/μL) of purified C-KIT protein kinase was reacted with 1 μL of the above Compound 4 with 3× gradient dilution (the final concentrations of the drug were 10 μM, 3 μM, 1 μM, 0.3 μM, 0.1 μM, 0.03 μM, 0.01 μM, 0.003 μM) at room temperature for 4 hours;
2 μL of ATP and 3 μL of substrate, Poly(4:1 Glu, Tyr)Peptide (Promega, US), were added (final concentrations were 10 μM and 0.2 μg/μL, respectively), and reacted at 37° C. for 1 hour; […]
10 μL of kinase detection reagent was added to transfer ADP into ATP, and the newly synthesized ATP was detected by using coupled luciferase/fluorescein reaction, then the IC50 values were calculated by using a plotting method based on the Envision reading.
On the technique in general: In ADP-Glo the light output rises with the ADP produced.

In data set [4] the test system is gastrointestinal stromal tumor cell lines GIST-882. The data set can be described thus: Mouse tumor model of GIST-882 cells. The class given is in vivo. Conditions: GIST-882 model; for tumor inhibition rate: Day 21 after administration. As for the experimental part:
1. 4-6 week-old Bal b/c female mice were purchased from Shanghai SLAC Experimental Animal Co., Ltd., and were raised in a SPF-level laboratory. Drinking water and padding were both subjected to aseptic processing via high-pressure disinfection, and all operations of the mice were conducted under aseptic conditions;
2. About 5×10^6 gastrointestinal stromal tumor cell lines GIST-T1 or GIST-882 (purchased from ATCC) were respectively injected subcutaneously at left side back of all mice at Day 0;
5. Mice were sacrificed on Day 36 (for GIST-882 mouse model) or Day 43 (GIST-T1 mouse model) and subcutaneous tumors were taken out and weighed for comparison;
6. Tumor tissue specimens were prepared into protein lysate samples for further usage;
7. Growth trend of subcutaneous tumors from Day 16 to Day 43 was derived, and tumor volume was calculated as length×width×width/2 mm^3.

In data set [5] the test system is phosphorylation of C-KIT and pathway proteins in GIST-T1 cells. The data set can be described thus: Effects on cell signaling pathways (phosphorylation), GIST-T1. The class given is cell-based, human. Conditions: GIST-T1, 0.1 μM, 2 hours.
Data set [6] concerns Tel-cKit/V559D/V654A-BaF3 cells (KIT V559D/V654A). The data set can be described thus: Cell proliferation, CCK-8, Tel-cKit/V559D/V654A-BaF3. The class given is cell-based. Conditions: Mus musculus, 72 hours.
Description: as §1, §2

The subject of data set [7] is GIST-T1 cells. Kind of data set: Cell cycle distribution by flow cytometry, GIST-T1. It counts as cell-based, human. As to conditions: GIST-T1, treated 24 hours. For orientation: A flow cytometer gives signals particle by particle.

T1 sequence (P10721 589-937 limits assumed): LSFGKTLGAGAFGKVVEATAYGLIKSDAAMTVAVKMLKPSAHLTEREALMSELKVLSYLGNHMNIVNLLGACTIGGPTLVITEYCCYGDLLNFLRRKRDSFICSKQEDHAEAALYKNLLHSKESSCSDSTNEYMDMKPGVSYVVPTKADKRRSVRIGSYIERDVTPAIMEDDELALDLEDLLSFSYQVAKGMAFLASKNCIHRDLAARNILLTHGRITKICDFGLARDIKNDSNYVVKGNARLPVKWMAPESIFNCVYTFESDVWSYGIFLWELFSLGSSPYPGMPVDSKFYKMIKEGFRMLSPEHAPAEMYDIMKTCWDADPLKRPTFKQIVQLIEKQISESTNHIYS

On to `Cc1ccc(NC(=O)c2cccc(C(F)(F)F)c2)cc1OC1CCN(C(=O)c2ccncc2)CC1` [Compound 4], for which the concentration for 50% growth inhibition (GI50) in data set [1] was 0.148 µM; in data set [2], over 5 µM; in data set [6] it was 1.05 µM. The midpoint of inhibition in data set [3], the IC50, lay at 0.099 µM. For the same molecule, the tumor inhibition rate in data set [4] (50 mg/kg oral daily) is 44%; in data set [4] (100 mg/kg oral daily) it was 58%. Besides, the “effect on body weight of mice” value in data set [4] (oral daily dosing) is on record as “no effect on the body weight of mice”. Also, in data set [5], the “phosphorylation of C-KIT oncogenic protein” value is listed as “significantly inhibiting”. Further, the “phosphorylation of proteins such as Stat5, AKT, ErK, S6K, S6, PDGFRα” value in data set [5] is on record as “significant inhibitory effects”. Further, in data set [7], the “effect on cell cycle” value is given as “significantly blocked in the GO-G1 phase”.

A word on the GI50: it is the concentration that inhibits growth by half. A lower GI50 goes with more potent growth inhibition. By IC50 is commonly meant the midpoint of a concentration-inhibition curve.
